Tests used:
[1] = tested on: cultured control skeletal muscle; assay: RT-PCR validation of microarray gene targets; format: cell-based, human; conditions: FIG. 1
Description: RNA was collected from cultured control skeletal muscle either transduced with a DUX4-fl expressing lentivirus (+) or not transduced (−). RPL13A was used as an internal standard. Total RNA was treated with DNase using TURBO DNA-free kit (Ambion) according to manufacturer's protocol. One μg of DNase-treated RNA was reverse transcribed to first strand cDNA with SuperScript III and anchored oligo dT (Invitrogen) at 52° C. for 1 h. Residual RNA was digested with RNase H at 37° C. for 20 min. cDNA was used in various PCR and real-time PCR reactions with primers listed below.
The primers shown below were designed to span exon-exon junctions where possible. Primers from select genes were also used in real-time PCR reactions to examine endogenous expression of targets in FSHD versus control samples described separately.

[2] = tested on: MaLR transcripts (THE1); assay: MaLR expression analysis by real-time PCR; format: cell-based, human; conditions: RT-PCR, transduced muscle cells
Description: Real-time PCR was performed as described above. Water and minus RT controls were checked to ensure there was no amplification of these repetitive elements from residual or contaminating genomic DNA.

[3] = tested on: Cultured human muscle cells (54-1); assay: Conditioned media from lenti-DUX4-fl cells on lenti-GFP transduced cells, RT-PCR of IFIH1 and DEFB103A/B; format: cell-based
Description: It was determined that DEFB103A (SEQ ID NO:49) and DEFB103B (SEQ ID NO:107), each encoding the polypeptide DEFB103A/B set forth as SEQ ID NO:178, are both activated by lenti-DUX4-fl and not by lenti-DUX4-s or lenti-GFP. These represent transcripts from a duplicated beta-defensin 3 gene, which can function as a suppressor of inflammation. As a secreted protein, DEFB103A/B (SEQ ID NO:178) has the potential to suppress the innate immune response in cells infected with lenti-GFP. As an initial step toward testing this, the inventors transduced cells with lenti-DUX4-fl or nothing for 12 hrs, washed extensively and replaced the culture media, then after an additional 12 hrs transferred the conditioned media to cells infected 24 hrs earlier with lenti-GFP.
Cultured human muscle cells (54-1) were transduced with nothing (first lane panels A and B), lenti-DUX4-fl @ approximately MOI=10 (lane 2), lenti-DUX4-fl MOI ˜1 (lane 3), lenti-GFP MOI ˜10 (lane 4), lenti-GFP transduced cells exposed to conditioned media from lane 2 cells (lane 5), lenti-GFP transduced cells exposed to conditioned media from lane 3 cells (lane 6), lenti-GFP transduced cells exposed to media from lane 5 cells that was filtered through a 35 kD cut-off filter. The conditioned media from the lenti-DUX4 transduced cells suppresses the IFIH1 induction by lenti-GFP (Panel A).

In the case of “DUX4-fl: full-length DUX4 protein (SEQ ID NO:110), expressed from lentiviral or pCS2 vectors or in vitro translated”, the “number of DUX4-fl regulated genes with differential expression validated by RT-PCR” value [1] is reported as 15 genes, the “endogenous MaLR transcripts” value [2] is reported as “induction of endogenous MaLR transcripts” and the “expression of DEFB103A/B” value ([3]; RT-PCR) is reported as “induces expression of DEFB103A/B”. The “activation of IFIH1 by the construct” value ([3]; qRT-PCR, no conditioned medium) was “did not”.
